# Legend:
# STAT3 [1] = assay: Activated STAT3 in LNCaP cells, Western blotting with anti-phospho-STAT3 (Tyr705) antibody; format: cell-based; conditions: 24 h no serum, angiotensin II 1x10^-6 M or EGF 1 ng/ml
# Experimental: In order to make clear the effect of angiotensin II on an cellular protein STAT3 which is one of signal transducing molecules of a growth factor and a cytokine and is said to be involved in cell growth, prostate cancer LNCaP cells were cultured for 24 hours with no serum stimulation, and then, stimulated with angiotensin II (1×10^−6 M) or EGF (1 ng/ml) already known to have growth promoting effect, and cells were collected at an appropriate time. The whole cell lysate was separated by SDS-PAGE, and then, transferred onto a PVDF membrane. Activated STAT3 and a total amount of STAT3 were confirmed by Western blotting method using an anti-phospho-STAT3 (Tyr705) antibody which recognizes only activated STAT3 (Cell Signaling Technology, 166B Cumming Center Beverly, Mass. 01915 U.S.A.: in FIG. 5, WB: PSTAT3), and a STAT3 antibody which recognizes all endogenous STAT3s (Cell Signaling Technology, 166B Cumming Center Beverly, Mass. 01915 U.S.A.: in FIG. 5, WB: STAT3) [FIG. 5]. […] That is, it has been apparent that STAT3 controlling cell growth is activated by stimulation with angiotensin II.
# MAP kinase = assay: Activated MAP kinase in LNCaP cells, Western blotting with anti-phospho-MAP kinase antibody; format: cell-based; conditions: 24 h no serum, angiotensin II 1x10^-6 M or EGF 1 ng/ml
# Experimental: In order to make clear the effect of angiotensin II on MAP kinase which is one of cellular proteins controlling cell growth, prostate cancer LNCaP cells were cultured for 24 hours with no serum stimulation, and then, stimulated with angiotensin II (1×10^−6 M) or EGF (1 ng/ml) already known to have growth promoting effect, and cells were collected at an appropriate time. The whole cell lysate was separated by SDS-PAGE, and then, transferred onto a PVDF membrane, and a total amount of cellular activated MAP kinase and MAP kinase was measured by Western blotting method using an anti-phospho-MAP kinase antibody which recognizes only activated MAP kinase (Cell Signaling Technology, 166B Cumming Center Beverly, Mass. 01915 U.S.A.: in FIG. 4, WB: PMAPK), and a MAP kinase antibody which recognizes all endogenous MAP kinases (Cell Signaling Technology, 166B Cumming Center Beverly, Mass. 01915 U.S.A.: in FIG. 4, WB: MAPK) [FIG. 4]. […] That is, it has been apparent that MAP kinase controlling cell growth is activated by stimulation of angiotensin II.
# [2] = tested on: tyrosine phosphorylation of cellular proteins in LNCaP cells; assay: Tyrosine phosphorylation of cellular proteins in LNCaP cells, Western blotting with anti-phospho-tyrosine antibody; format: cell-based; conditions: 24 h no serum, angiotensin II 1x10^-6 M or EGF 1 ng/ml, 5 minutes
# Experimental: It is already known that, when growth stimulation such as EGF is applied to cells, phosphorylation of cellular proteins is induced by activation of signal transduction pathway. Then, in order to make clear the effect of angiotensin II on prostate cancer, prostate cancer LNCaP cells were cultured for 24 hours with no serum stimulation, and then, the culture was stimulated with angiotensin II (1×10^−6 M) or EGF (1 ng/ml) which was already known to have growth promoting effect, and 5 minutes after, cells were collected. The whole cell lysate separated by SDS-PAGE, transferred onto a PVDF membrane, and then tyrosine phosphorylation of an cellular protein was observed by Western blotting method using an anti-phospho-tyrosine antibody (Upstate, 10 Old Barn Road Lake Placid, N.Y. 12946 U.S.A.) [FIG. 3]. […] That is, it is considered that stimulation with angiotensin II has the same or similar effect as that of stimulation with EGF on prostate cancer cells.
# [3] = tested on: microvessels in DU145 tumor; assay: Number of microvessels in DU145 tumor of nude mouse, anti-CD31 staining; format: in vivo, nude mouse (Balb/c); conditions: 5 mg/kg/day orally, 4 weeks, magnification 400; control 72.5±9.7, P<0.02
# Experimental: To a male 4 week old nude mouse (Balb/c), 5×10^6 DU145 cells were subcutaneously injected on a back. After 10 days, when tumor having a diameter of 5 mm was formed (0 week), Candesartan cilexetil (Compound C) was mixed into drinking water (each group: n=3) so that Compound C could be orally taken the an amount of 5 mg/kg/day. As a control group, a group (n=3) receiving no Compound C was bred at the same time. Initiation of the oral administration was regarded as week 0, each group was bred for 4 weeks, and thereafter, tumor was isolated, stained with an anti-CD31 antibody as described hereinafter, and the number of microvessels in tumor was examined. Under a microscope (magnification 400), four places rich in the number of microvessels were selected from a tumor solid tissue part, and the number was counted. The results are shown in [FIG. 7]. Average 72.5±9.7 vessels were recognized in one field in case of the control group, and average 37.5±3.3 vessels were recognized in one field in case of the Compound C-administered group and, thus, a significant difference was recognized between both groups (P<0.02).
# Vessels in a tumor-transplanted tissue of a nude mouse were immunologically stained using an anti-mouse CD31 antibody, and the number of vessels and vascularization state were studied. Procedures were as follows: […]
# DU145 cells = assay: Tumor growth of subcutaneous DU145 tumor in nude mouse, compound in drinking water; format: in vivo, nude mouse (Balb/c)
# Experimental: To a male 4 week-old nude mouse (Balb/c), 5×10^6 DU145 cells were subcutaneously injected on a back. After 10 days, when tumor having a diameter of 5 mm was formed (week 0), Candesartan cilexetil (Compound C) was mixed into drinking water so that Compound C could be orally taken at a dosage of 5 mg/kg day or 2.5 mg/kg day (each group: n=5). As a control group, a group (n=5) receiving no Compound C was bred at the same time. Initiation of the oral administration was regarded as week 0, each group was bred for 4 weeks, and a diameter of tumor was measured every week.
# STAT3 [4] = assay: Phosphorylation after EGF stimulation of LNCaP cells, each concentration of compound; format: cell-based; conditions: EGF 1 ng/ml, compound 10^-6 M, 5x10^-6 M, 10x10^-6 M
# [5] = tested on: DU-145 (androgen receptor negative cell line derived from metastasis of prostate cancer); assay: Cell number of DU-145 prostate cancer cells 5 days after addition of EGF and compound; format: cell-based; conditions: DU-145, serum free, 10^-6 M compound plus EGF
# Experimental: Prostate cancer cells, DU-145 (androgen receptor negative cell line derived from metastasis of prostate cancer) were seeded on a 6-well dish (1×10^5 cells/well), and cultured for 24 hours under serum free conditions. Then, EGF and 2-ethoxy-1-[[2′-(1H-tetrazol-5-yl)biphenyl-4-yl]methyl]benzimidazole-7-carboxylic acid (Compound B) were added, and 5 days after, the number of cells was counted with a hematocytometer [FIG. 1].
# MAPK [6] = assay: Phosphorylation of MAPK in LNCaP cells stimulated with EGF; format: cell-based; conditions: EGF 1 ng/ml, compound 10^-6 M added 30 minutes before
# Experimental: (1) LNCaP cells (10^7 cells) were cultured in a serum-free culture medium (F-12+1 mg/ml BSA) for 24 hours, each concentration of EGF and Compound B (10^−6 M) were added, and phosphorylation of MAPK was investigated.
# [7] = tested on: LNCaP (androgen receptor positive cell line derived from metastasis of prostate cancer); assay: Cell number of LNCaP prostate cancer cells 5 days after addition of EGF and compound; format: cell-based; conditions: serum free, 10^-6 M compound plus EGF
# Experimental: Prostate cancer cells, LNCaP (androgen receptor positive cell line derived from metastasis of prostate cancer) were seeded on a dish (1×10^5 cells/dish), and cultured for 24 hours under serum free conditions. Then, EGF and Compound B were added, and 5 days after, the number of cells was counted [FIG. 2].
# MAPK [8] = assay: Phosphorylation of MAPK in LNCaP cells stimulated with IL-6; format: cell-based; conditions: IL-6 25 ng/ml, compound 10^-6 M, 5x10^-6 M, 10x10^-6 M
# Experimental: (3) LNCaP cells (10^7 cells) were cultured in a serum-free culture medium (F-12+1 mg/ml BSA) for 24 hours, IL-6: 25 ng/ml and each concentration of Compound B (10^−6 M, 5×10^−6 M, 10×10^−6 M) were added, and phosphorylation of MAPK was investigated.
molecule,measurement,setting,value
"angiotensin II: stimulant of LNCaP cells acting on the angiotensin II receptor AT1 (DRVYIHPF; Angiotensin-2; UniProt P01019 25-32, looked up)",activated STAT3 (WB: PSTAT3),STAT3 [1],activated STAT3 was increased
same,activated MAP kinase (WB: PMAPK),MAP kinase,activated MAP kinase was increased
same,tyrosine phosphorylation of cellular proteins,[2],tyrosine phosphorylation of the same protein by stimulation with angiotensin II was also observed
EGF: growth factor already known to have growth promoting effect,activated STAT3 (WB: PSTAT3),STAT3 [1],activated STAT3 was increased
same,activated MAP kinase (WB: PMAPK),MAP kinase,activated MAP kinase was increased
same,tyrosine phosphorylation of cellular proteins,[2],tyrosine phosphorylation was induced
"CCOc1nc2cccc(C(=O)OC(C)OC(=O)OC3CCCCC3)c2n1Cc1ccc(-c2ccccc2-c2nnn[nH]2)cc1 (centres unmarked) [Compound C, 1-(cyclohexyloxycarbonyloxy)ethyl 2-ethoxy-1-[[2′-(1H-tetrazol-5-yl)biphenyl-4-yl]methyl]benzimidazole-7-carboxylate]","number of microvessels in tumor, average vessels in one field",[3],37.5±3.3 vessels
same,growth inhibition as compared with the control group,"DU145 cells; 5 mg/kg/day orally, in and after week 2",significant difference of P<0.01
same,tumor growth (diameter of tumor),"DU145 cells; 5 or 2.5 mg/kg/day orally in drinking water, from week 2, 4 weeks",inhibition of tumor growth was observed
"CCOc1nc2cccc(C(=O)O)c2n1Cc1ccc(-c2ccccc2-c2nnn[nH]2)cc1 [Compound B, 2-ethoxy-1-[[2′-(1H-tetrazol-5-yl)biphenyl-4-yl]methyl]benzimidazole-7-carboxylic acid]",phosphorylation of STAT3 by EGF stimulation,STAT3 [4],inhibited in a Compound B dose dependant manner
same,reduction of the number of cells as compared with stimulation with EGF alone,[5],about 12%
same,phosphorylation of MAPK by EGF stimulation,MAPK [6],phosphorylation was inhibited
same,reduction of the number of cells as compared with stimulation with EGF alone,[7],about 22%
same,phosphorylation of MAPK by IL-6,MAPK [8],inhibited in a Compound B dose dependent manner

# — patent publication US7812044B2, “Anticancer agents” (Takeda Pharmaceutical Company Limited, priority 2001, dated 2010)
